Tests used:
Type in all cases: biochemical
JAK2 = target: T1, JAK2 (Homo sapiens, UniProt O60674); assay: JAK2 kinase assay (HTRF, inhibition of phosphorylation of a synthetic peptide); conditions: catalytic domain, His-tag; 4 μM ATP (Km); read-out: JAK2 kinase inhibitory activity (EC50)
T1 construct: All four purified enzymes contain only the catalytic domain; His (N); purchased Carna Biosciences, Inc; host or cells: baculovirus expression system
Summary of the method: (§1)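 HTRF detection (streptavidin-XL665, cryptate anti-phospho antibody, overnight in the dark) after EDTA stop of a 20-30 min RT reaction on 1 μM TK substrate-biotin. Km-level ATP per kinase: 7 μM for JAK1 and 13 μM for TYK2, both N-terminal GST, with 50 nM SEB; 4 μM for JAK2 and 2 μM for JAK3, both His-tagged. Catalytic domains only; DMSO 0.75%.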

JAK1 = target: T2, JAK1 (Homo sapiens, UniProt P23458); assay: JAK1 kinase assay (HTRF, inhibition of phosphorylation of a synthetic peptide); conditions: catalytic domain aa 850-1154, GST-tag; 7 μM ATP (Km); read-out: JAK1 kinase inhibitory activity (EC50)
T2 construct: JAK1 (aa 850-1154) and TYK2 (aa 871-1187) are expressed with an N-terminally fused GST-tag; GST (N); purchased Carna Biosciences, Inc; host or cells: baculovirus expression system
T2 sequence (P23458 850-1154): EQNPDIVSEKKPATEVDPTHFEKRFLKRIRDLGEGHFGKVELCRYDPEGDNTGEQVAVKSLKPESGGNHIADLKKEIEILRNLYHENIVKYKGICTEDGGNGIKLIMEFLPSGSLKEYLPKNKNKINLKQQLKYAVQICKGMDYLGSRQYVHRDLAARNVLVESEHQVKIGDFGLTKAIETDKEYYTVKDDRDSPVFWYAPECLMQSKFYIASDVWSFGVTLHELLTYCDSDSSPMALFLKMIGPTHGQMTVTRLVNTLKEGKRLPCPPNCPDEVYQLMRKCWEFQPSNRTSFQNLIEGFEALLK
Summary of the method: as §1

JAK3 = target: T3, JAK3 (Homo sapiens, UniProt P52333); assay: JAK3 kinase assay (HTRF, inhibition of phosphorylation of a synthetic peptide); conditions: catalytic domain, His-tag; 2 μM ATP (Km); read-out: JAK3 kinase inhibitory activity (EC50)
T3 construct: All four purified enzymes contain only the catalytic domain; His (N); purchased Carna Biosciences, Inc; host or cells: baculovirus expression system
T3 sequence (P52333 822-1111 limits assumed): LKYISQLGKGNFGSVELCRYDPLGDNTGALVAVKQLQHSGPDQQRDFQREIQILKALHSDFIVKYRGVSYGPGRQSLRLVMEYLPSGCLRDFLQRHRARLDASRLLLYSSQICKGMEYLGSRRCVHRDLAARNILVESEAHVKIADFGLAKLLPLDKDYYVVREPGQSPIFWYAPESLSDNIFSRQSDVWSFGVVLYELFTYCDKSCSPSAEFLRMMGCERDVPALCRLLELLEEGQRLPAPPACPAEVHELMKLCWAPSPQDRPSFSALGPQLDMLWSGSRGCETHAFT
Summary of the method: as §1

TYK2 = target: T4, TYK2 (Homo sapiens, UniProt P29597); assay: TYK2 kinase assay (HTRF, inhibition of phosphorylation of a synthetic peptide); conditions: catalytic domain aa 871-1187, GST-tag; 13 μM ATP (Km); read-out: TYK2 kinase inhibitory activity (EC50)
T4 construct: JAK1 (aa 850-1154) and TYK2 (aa 871-1187) are expressed with an N-terminally fused GST-tag; GST (N); purchased Carna Biosciences, Inc; host or cells: baculovirus expression system
T4 sequence (P29597 871-1187): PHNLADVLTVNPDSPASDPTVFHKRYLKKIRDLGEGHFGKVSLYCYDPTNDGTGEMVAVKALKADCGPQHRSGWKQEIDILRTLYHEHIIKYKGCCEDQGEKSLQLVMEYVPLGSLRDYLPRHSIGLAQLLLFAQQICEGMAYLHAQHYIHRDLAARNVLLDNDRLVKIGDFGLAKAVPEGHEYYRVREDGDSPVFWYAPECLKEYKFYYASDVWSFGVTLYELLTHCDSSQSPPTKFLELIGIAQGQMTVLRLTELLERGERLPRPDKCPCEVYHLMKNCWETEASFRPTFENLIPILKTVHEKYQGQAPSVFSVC
Description: JAK1, JAK2, JAK3 and TYK2 Kinase Assays:
Human baculovirus-expressed JAK1, 2, 3 and TYK2 were purchased from Carna Biosciences, Inc. All four purified enzymes contain only the catalytic domain. JAK1 (aa 850-1154) and TYK2 (aa 871-1187) are expressed with an N-terminally fused GST-tag, and JAK2 and JAK3 with an N-terminally fused His-tag. Inhibition of phosphorylation of a synthetic peptide was measured in an HTRF-based assay using the TK substrate-Biotin from the CisbioHTRFKinEASE TK kit. First, 2 μl of TK solution (TK substrate-biotin in kinase buffer [1× enzymatic buffer from HTRFKinEASE TK kit, 1 mM DTT]) is added to a plate containing 1 μl prediluted compound (final assay concentration DMSO: 0.75%). Then, 5 μl kinase-ATP mix (prepared in kinase buffer) is added to the wells and the plates are incubated at RT for 20-30 min. For all four kinases a concentration of ATP that corresponded to the Km for ATP was used. The final concentrations of buffers, substrate, kinase and ATP were: JAK1: 50 mMHepes buffer pH 7.0, 0.01% BSA, 10 mM MgCl2, 1 mM DTT, 7 μM ATP, 50 nMSEB, 1 μM TK Substrate-Biotin and 5 ng JAK1; JAK2: 50 mM Hepes buffer pH 7.0, 0.01% BSA, 5 mM MgCl2, 1 mM DTT, 4 μM ATP, 1 μM TK Substrate-Biotin and 0.1 ng JAK2; JAK3: 50 mMHepes buffer pH 7.0, 0.01% BSA, 5 mM MgCl2, 1 mM DTT, 2 μM ATP, 1 μM TK Substrate-Biotin and 0.3 ng JAK3; TYK2: 50 mMHepes buffer pH 7.0, 0.01% BSA, 5 mM MgCl2, 1 mM DTT, 13 μM ATP, 50 nMSEB, 1 μM TK Substrate-Biotin and 0.8 ng TYK2. Thereafter, the kinase reaction is stopped by adding 4 μl detection mix (final concentrations: 50 mM Hepes buffer pH 7.0, 0.01% BSA, 0.8 M KF, 20 mM EDTA, 42 nM Streptavidin-XL665 and 1:400 STKAbCryptate) and the plates are incubated overnight in the dark. The HTRF signal is read using an Envision plate reader.

T1 sequence (O60674 849-1124 limits assumed): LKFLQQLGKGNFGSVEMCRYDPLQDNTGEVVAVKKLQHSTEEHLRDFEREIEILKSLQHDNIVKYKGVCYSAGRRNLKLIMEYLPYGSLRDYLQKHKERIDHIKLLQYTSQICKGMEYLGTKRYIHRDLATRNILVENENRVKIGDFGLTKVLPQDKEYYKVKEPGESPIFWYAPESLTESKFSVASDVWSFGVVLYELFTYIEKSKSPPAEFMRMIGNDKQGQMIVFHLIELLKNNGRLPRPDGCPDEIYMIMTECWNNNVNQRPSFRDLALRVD

Structure (SMILES) | EC50 (JAK2) [nM] | EC50 (JAK1) [nM] | EC50 (JAK3) [nM] | EC50 (TYK2) [nM]
N#CCCC(=O)N1CCN(c2ncnc3[nH]ccc23)CC2(CC2)C1 [Example 1, 4-Oxo-4-[8-(7H-pyrrolo[2,3-d]pyrimidin-4-yl)-5,8-diazaspiro[2.6]non-5-yl]butyronitrile] | < 100 | < 100 | 100 to 1000 | 100 to 1000
COc1cccc(C(=O)N2CCN(c3ncnc4[nH]ccc34)CC3(CC3)C2)c1OC [Example 2, (2,3-Dimethoxyphenyl)-[8-(7H-pyrrolo[2,3-d]pyrimidin-4-yl)5,8-diazaspiro[2.6]non-5-yl]methanone] | > 1000 | > 1000 | > 1000 | > 1000
N#Cc1cccc(C(=O)N2CCN(c3ncnc4[nH]ccc34)CC3(CC3)C2)c1 [Example 3, 3-[8-(7H-pyrrolo[2,3-d]pyrimidin-4-yl)-5,8-diazaspiro[2.6]nonane-5-carbonyl]benzonitrile] | 100 to 1000 | 100 to 1000 | > 1000 | > 1000
COc1ncccc1C(=O)N1CCN(c2ncnc3[nH]ccc23)CC2(CC2)C1 [Example 4, (2-Methoxypyridin-3-yl)-[8-(7H-pyrrolo[2,3-d]pyrimidin-4-yl)-5,8-diazaspiro[2.6]non-5-yl]methanone] | > 1000 | > 1000 | > 1000 | > 1000
N#CCC(=O)N1CCN(c2ncnc3[nH]ccc23)CC2(CC2)C1 [Example 5, 3-oxo-3-[8-(7H-pyrrolo[2,3-d]pyrimidin-4-yl)-5,8-diazaspiro[2.6]non-5-yl]propionitrile] | < 100 | < 100 | < 100 | 100 to 1000
CC(=O)N1CCC(C(=O)N2CCN(c3ncnc4[nH]ccc34)CC3(CC3)C2)CC1 [Example 6, 1-{4-[8-(7H-pyrrolo[2,3-d]pyrimidin-4-yl)-5,8-diazaspiro[2.6]nonane-5-carbonyl]piperidin-1-yl}ethanone] | 100 to 1000 | 100 to 1000 | > 1000 | > 1000
N#Cc1ccccc1C(=O)N1CCN(c2ncnc3[nH]ccc23)CC2(CC2)C1 [Example 7, 2-[8-(7H-pyrrolo[2,3-d]pyrimidin-4-yl)-5,8-diazaspiro[2.6]nonane-5-carbonyl]benzonitrile] | 100 to 1000 | > 1000 | > 1000 | > 1000
N#Cc1ccc2[nH]c(C(=O)N3CCN(c4ncnc5[nH]ccc45)CC4(CC4)C3)cc2c1 [Example 8, 2-[8-(7H-pyrrolo[2,3-d]pyrimidin-4-yl)-5,8-diazaspiro[2.6]nonane-5-carbonyl]-1H-indole-5-carbonitrile] | 100 to 1000 | < 100 | 100 to 1000 | > 1000
N#Cc1cccc(CC(=O)N2CCN(c3ncnc4[nH]ccc34)CC3(CC3)C2)c1 [Example 9, 3-{2-oxo-2-[8-(7H-pyrrolo[2,3-d]pyrimidin-4-yl)-5,8-diazaspiro[2.6]non-5-yl]ethyl}benzonitrile] | < 100 | 100 to 1000 | 100 to 1000 | > 1000

Continued, values first:

EC50 (JAK2) [nM] | EC50 (JAK1) [nM] | EC50 (JAK3) [nM] | EC50 (TYK2) [nM] | Structure (SMILES)
100 to 1000 | 100 to 1000 | 100 to 1000 | > 1000 | CCC1=NOC(C(=O)N2CCCN(c3ncnc4[nH]ccc34)CC23CC3)C1 (racemic) [Example 123, (3-ethyl-4,5-dihydroisoxazol-5-yl)-[5-(7H-pyrrolo[2,3-d]pyrimidin-4-yl)-5,9-diazaspiro[2.6]nonan-9-yl]methanone]
< 100 | < 100 | < 100 | 100 to 1000 | N#Cc1ccc(CC(=O)N2CCN(c3ncnc4[nH]ccc34)CC3(CC3)C2)cc1 [Example 10, 4-{2-oxo-2-[8-(7H-pyrrolo[2,3-d]pyrimidin-4-yl)-5,8-diazaspiro[2.6]non-5-yl]ethyl}benzonitrile]
100 to 1000 | > 1000 | 100 to 1000 | > 1000 | CC(C)(C#N)C(=O)N1CCN(c2ncnc3[nH]ccc23)CC2(CC2)C1 [Example 11, 2,2-Dimethyl-3-oxo-3-[8-(7H-pyrrolo[2,3-d]pyrimidin-4-yl)-5,8-diazaspiro[2.6]non-5-yl]propionitrile]
100 to 1000 | 100 to 1000 | > 1000 | > 1000 | N#CCc1ccc(C(=O)N2CCN(c3ncnc4[nH]ccc34)CC3(CC3)C2)cc1 [Example 12, {4-[8-(7H-pyrrolo[2,3-d]pyrimidin-4-yl)-5,8-diazaspiro[2.6]nonane-5-carbonyl]phenyl}acetonitrile]
< 100 | 100 to 1000 | > 1000 | > 1000 | N#Cc1ccc(C(F)(F)C(=O)N2CCN(c3ncnc4[nH]ccc34)CC3(CC3)C2)cc1 [Example 13, 4-[1,1-difluoro-2-oxo-2-[5-(7H-pyrrolo[2,3-d]pyrimidin-4-yl)-5,8-diazaspiro[2.6]nonan-8-yl]ethyl]benzonitrile]
100 to 1000 | 100 to 1000 | > 1000 | > 1000 | N#CCOc1cccc(C(=O)N2CCN(c3ncnc4[nH]ccc34)CC3(CC3)C2)c1 [Example 14, 2-[3-[5-(7H-pyrrolo[2,3-d]pyrimidin-4-yl)-5,8-diazaspiro[2.6]nonane-8-carbonyl]phenoxy]acetonitrile]
100 to 1000 | 100 to 1000 | 100 to 1000 | > 1000 | N#CCOc1ccc(C(=O)N2CCN(c3ncnc4[nH]ccc34)CC3(CC3)C2)cc1 [Example 15, 2-[4-[5-(7H-pyrrolo[2,3-d]pyrimidin-4-yl)-5,8-diazaspiro[2.6]nonane-8-carbonyl]phenoxy]acetonitrile]
< 100 | < 100 | 100 to 1000 | > 1000 | N#CCOc1ccc(CC(=O)N2CCN(c3ncnc4[nH]ccc34)CC3(CC3)C2)cc1 [Example 16, 2-[4-[2-oxo-2-[5-(7H-pyrrolo[2,3-d]pyrimidin-4-yl)-5,8-diazaspiro[2.6]nonan-8-yl]ethyl]phenoxy]acetonitrile]
< 100 | 100 to 1000 | 100 to 1000 |  | N#Cc1cc(CC(=O)N2CCN(c3ncnc4[nH]ccc34)CC3(CC3)C2)ccc1F [Example 273, 2-fluoro-5-[2-oxo-2-[5-(7H-pyrrolo[2,3-d]pyrimidin-4-yl)-5,8-diazaspiro[2.6]nonan-8-yl]ethyl]benzonitrile]
< 100 | 100 to 1000 | 100 to 1000 |  | CC(C(=O)N1CCN(c2ncnc3[nH]ccc23)CC2(CC2)C1)c1ccccc1 (centres unmarked) [Example 275, 2-phenyl-1-[5-(7H-pyrrolo[2,3-d]pyrimidin-4-yl)-5,8-diazaspiro[2.6]nonan-8-yl]propan-1-one]
100 to 1000 | 100 to 1000 | > 1000 |  | CC(=O)Nc1ccc(CC(=O)N2CCN(c3ncnc4[nH]ccc34)CC3(CC3)C2)cc1 [Example 276]
100 to 1000 | > 1000 | > 1000 |  | c1ccc(CN2CCCN(c3ncnc4[nH]ccc34)CC23CC3)cc1 [Example 280, 4-(9-benzyl-5,9-diazaspiro[2.6]nonan-5-yl)-7H-pyrrolo[2,3-d]pyrimidine]
